What all share (format): functional
Experiment [1] has as its system Rattus norvegicus. The experiment is described as follows: Effect on mean arterial blood pressure in SHR rat at the dose of 10 mg/kg i.v. As to conditions: route intravenous.
Experiment [2] deals with Rattus norvegicus. The experiment is described as follows: Effect on mean arterial blood pressure in SHR rat at the dose of 0.3 mg/kg i.v. As to conditions: route intravenous.
Another experiment is filed under the species Oryctolagus cuniculus. The experiment can be described thus: Compound did not aggregate rabbit platelet at concentration of 1.8E-5 M.

This passage reports Blood pressure and Activity results from ChEMBL document CHEMBL1123053, “Analogues of platelet activating factor. 3. Replacement of the phosphate moiety with a sulfonylbismethylene group” (1985).

Take `CCCCCCCCCCCCCCCCOCC(CCS(=O)(=O)CCC[N+](C)(C)C)OC(C)=O.[Cl-]` (stereo not drawn): in the experiment with Rattus norvegicus [1], the Blood pressure worked out at 20 mmHg. On to `CCCCCCCCCCCCCCCCOCC(COP(=O)([O-])OCC[N+](C)(C)C)OC(C)=O` (stereo not drawn) [PLATELET ACTIVATING FACTOR], for which the Blood pressure in the experiment on Rattus norvegicus [2] was determined as 20 mmHg. Further, in the experiment filed under Oryctolagus cuniculus, the Activity entry is reported as “Did not aggregate rabbit platelet at concentration of 1.8E-5 M”.
